Data taken from the supplement of paper PMC9262897, “Low-cost anti-mycobacterial drug discovery using engineered E. coli” (Nature Communications, 2022).

Experiments:
Assay in all cases: growth (OD600 after 24 h); higher = more growth
Efflux+ = tested on: Efflux+
Method: (§1)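 E. coli BW25113 ΔaraC (Efflux+) or efflux-pump deletion strains (ΔtolC ΔentC, ΔemrE, ΔmdtI, ΔyeeO, ΔmdtK, ΔmdtM) diluted 1:100 in M9-based medium with a drug dilution series. Growth is read as OD600 after 24 h; 3 biological replicates.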

∆emrE = tested on: ∆emrE
Method: as §1

∆mdtI = tested on: ∆mdtI
Method: as §1

∆mdtK = tested on: ∆mdtK
Method: as §1

∆mdtM = tested on: ∆mdtM
Method: as §1

∆tolC ∆entC = tested on: ∆tolC ∆entC
Method: as §1

∆yeeO = tested on: ∆yeeO
Method: as §1

CC/C(=C(/CC)c1ccc(O)cc1)c1ccc(O)cc1 [Diethylstilbestrol]
growth
Settings	Efflux+	∆emrE	∆mdtI	∆mdtK	∆mdtM	∆tolC ∆entC	∆yeeO
drug 0.5 µM	0.872	0.993	0.863	0.717	0.7859	0.995	0.983
drug 1.25 µM	1.04	0.978	0.979	0.754	0.8345	1.04	0.991
drug 2.5 µM	1.03	0.977	0.976	0.881	0.903	1.03	1.01
drug 5 µM	1.07	1.01	0.9841	0.786	0.956	0.761	1
drug 10 µM	1.056	1.06	1.02	0.84	0.9842	0.0999	1.04
drug 20 µM	1.06	1.08	0.948	0.713	1.05	0.0484	1.07

N=C(N)c1ccc(OCCCCCOc2ccc(C(=N)N)cc2)cc1 [Pentamidine]
growth
Settings	Efflux+	∆emrE	∆mdtI	∆mdtK	∆mdtM	∆tolC ∆entC	∆yeeO
drug 6.25 µM	0.978	0.879	1.003	0.814	0.809	0.996	0.845
drug 12.5 µM	0.894	0.8324	0.936	0.77	0.7967	0.854	0.833
drug 25 µM	0.88	0.826	0.89493	0.68	0.779	0.804	0.79
drug 50 µM	0.805	0.811	0.837	0.513	0.745	0.709	0.758
drug 100 µM	0.635	0.739	0.655	0.367	0.614	0.389	0.637
drug 200 µM	0.337	0.615	0.352	0.212	0.502	0.0928	0.34

Nc1nc2ccc(OC(F)(F)F)cc2s1 [Riluzole]
growth
Settings	Efflux+	∆emrE	∆mdtI	∆mdtK	∆mdtM	∆tolC ∆entC	∆yeeO
drug 16 µM	1.09	0.961	1.06	0.831	0.802	1.05	0.958
drug 31 µM	1.038	1.06	1.045	0.799	0.79	1.09	0.905
drug 62 µM	0.997	1.08	1.01	0.788	0.776	1.02	0.851
drug 125 µM	0.978	1.12	0.981	0.749	0.74	0.97	0.909
drug 250 µM	0.973	1.09	0.9767	0.741	0.785	0.634	0.857
drug 500 µM	0.74	0.8264	0.634	0.669	0.527	0.0507	0.703
